From the NIST ThermoML archive (doi:10.1007/s10765-008-0506-x)
± gives the expanded uncertainty stated by the source.

Legend:
[1] = 294.2 K, Liquid, Hot wire method
[2] = xn = mol fraction of the nth substance listed; details: Liquid, Hot wire method

Work on Cn1ccnc1 [1-methylimidazole] yielded a thermal conductivity ([1]; 10000 kPa) of 0.194 ± 0.006 W/m/K and a thermal conductivity ([1]; 20000 kPa) of 0.196 ± 0.006 W/m/K.

For Cn1ccnc1 [1-methylimidazole] + O=C=O, the thermal conductivity ([2]; 294.2 K, 10000 kPa, x2 = 0) was 0.194 ± 0.006 W/m/K, the thermal conductivity ([2]; 294.2 K, 10000 kPa, x2 = 0.157) was 0.187 ± 0.006 W/m/K and the thermal conductivity ([2]; 294.2 K, 10000 kPa, x2 = 0.261) was 0.184 ± 0.006 W/m/K. For the same compound, the thermal conductivity ([2]; 294.2 K, 10000 kPa, x2 = 0.337) was 0.18 ± 0.005 W/m/K, the thermal conductivity ([2]; 294.2 K, 10000 kPa, x2 = 0.43) was 0.176 ± 0.005 W/m/K and the thermal conductivity ([2]; 294.2 K, 20000 kPa, x2 = 0) was 0.196 ± 0.006 W/m/K. The thermal conductivity ([2]; 294.2 K, 20000 kPa, x2 = 0.157) was 0.19 ± 0.006 W/m/K, the thermal conductivity ([2]; 294.2 K, 20000 kPa, x2 = 0.261) was 0.187 ± 0.006 W/m/K and the thermal conductivity ([2]; 294.2 K, 20000 kPa, x2 = 0.337) was 0.184 ± 0.006 W/m/K. The thermal conductivity ([2]; 294.2 K, 20000 kPa, x2 = 0.43) was 0.18 ± 0.005 W/m/K.

In the case of CCCCn1cc[n+](C)c1.F[B-](F)(F)F [1-butyl-3-methylimidazolium tetrafluoroborate] + O=C=O, the thermal conductivity ([2]; 294.2 K, 10000 kPa, x2 = 0.169) is reported as 0.173 ± 0.005 W/m/K, the thermal conductivity ([2]; 294.2 K, 10000 kPa, x2 = 0.308) is reported as 0.17 ± 0.005 W/m/K and the thermal conductivity ([2]; 294.2 K, 10000 kPa, x2 = 0.422) is reported as 0.171 ± 0.005 W/m/K. For the same compound, the thermal conductivity ([2]; 294.2 K, 20000 kPa, x2 = 0.169) was 0.174 ± 0.005 W/m/K, the thermal conductivity ([2]; 294.2 K, 20000 kPa, x2 = 0.308) was 0.172 ± 0.005 W/m/K and the thermal conductivity ([2]; 294.2 K, 20000 kPa, x2 = 0.422) was 0.171 ± 0.005 W/m/K. For the same compound, the thermal conductivity ([2]; 314.3 K, 10000 kPa, x2 = 0.169) was 0.173 ± 0.005 W/m/K, the thermal conductivity ([2]; 314.3 K, 10000 kPa, x2 = 0.308) was 0.169 ± 0.005 W/m/K and the thermal conductivity ([2]; 314.3 K, 10000 kPa, x2 = 0.422) was 0.17 ± 0.005 W/m/K. It also gave a thermal conductivity ([2]; 314.3 K, 20000 kPa, x2 = 0.169) of 0.175 ± 0.005 W/m/K, a thermal conductivity ([2]; 314.3 K, 20000 kPa, x2 = 0.308) of 0.17 ± 0.005 W/m/K and a thermal conductivity ([2]; 314.3 K, 20000 kPa, x2 = 0.422) of 0.17 ± 0.005 W/m/K. For the same compound, the thermal conductivity ([2]; 334.3 K, 10000 kPa, x2 = 0.169) was 0.173 ± 0.005 W/m/K, the thermal conductivity ([2]; 334.3 K, 10000 kPa, x2 = 0.308) was 0.169 ± 0.005 W/m/K and the thermal conductivity ([2]; 334.3 K, 10000 kPa, x2 = 0.422) was 0.169 ± 0.005 W/m/K. It also gave a thermal conductivity ([2]; 334.3 K, 20000 kPa, x2 = 0.169) of 0.175 ± 0.005 W/m/K, a thermal conductivity ([2]; 334.3 K, 20000 kPa, x2 = 0.308) of 0.17 ± 0.005 W/m/K and a thermal conductivity ([2]; 334.3 K, 20000 kPa, x2 = 0.422) of 0.169 ± 0.005 W/m/K.

CCCCn1cc[n+](C)c1.F[P-](F)(F)(F)(F)F [1-butyl-3-methylimidazolium hexafluorophosphate] + O=C=O gave a thermal conductivity ([2]; 294.4 K, 10000 kPa, x2 = 0.108) of 0.148 ± 0.005 W/m/K, a thermal conductivity ([2]; 294.4 K, 10000 kPa, x2 = 0.22) of 0.149 ± 0.005 W/m/K and a thermal conductivity ([2]; 294.4 K, 10000 kPa, x2 = 0.328) of 0.15 ± 0.005 W/m/K. For the same compound, the thermal conductivity ([2]; 294.4 K, 10000 kPa, x2 = 0.42) was 0.148 ± 0.005 W/m/K, the thermal conductivity ([2]; 294.4 K, 20000 kPa, x2 = 0.108) was 0.15 ± 0.005 W/m/K and the thermal conductivity ([2]; 294.4 K, 20000 kPa, x2 = 0.22) was 0.151 ± 0.005 W/m/K. For the same compound, the thermal conductivity ([2]; 294.4 K, 20000 kPa, x2 = 0.328) was 0.152 ± 0.005 W/m/K, the thermal conductivity ([2]; 294.4 K, 20000 kPa, x2 = 0.42) was 0.149 ± 0.005 W/m/K and the thermal conductivity ([2]; 314.5 K, 10000 kPa, x2 = 0.108) was 0.149 ± 0.005 W/m/K. It also gave a thermal conductivity ([2]; 314.5 K, 10000 kPa, x2 = 0.22) of 0.149 ± 0.005 W/m/K, a thermal conductivity ([2]; 314.5 K, 10000 kPa, x2 = 0.328) of 0.152 ± 0.005 W/m/K and a thermal conductivity ([2]; 314.5 K, 10000 kPa, x2 = 0.42) of 0.148 ± 0.005 W/m/K. It also gave a thermal conductivity ([2]; 314.5 K, 20000 kPa, x2 = 0.108) of 0.151 ± 0.005 W/m/K, a thermal conductivity ([2]; 314.5 K, 20000 kPa, x2 = 0.22) of 0.152 ± 0.005 W/m/K and a thermal conductivity ([2]; 314.5 K, 20000 kPa, x2 = 0.328) of 0.153 ± 0.005 W/m/K. For the same compound, the thermal conductivity ([2]; 314.5 K, 20000 kPa, x2 = 0.42) was 0.148 ± 0.005 W/m/K, the thermal conductivity ([2]; 334.2 K, 10000 kPa, x2 = 0.108) was 0.148 ± 0.005 W/m/K and the thermal conductivity ([2]; 334.2 K, 10000 kPa, x2 = 0.22) was 0.15 ± 0.005 W/m/K. For the same compound, the thermal conductivity ([2]; 334.2 K, 10000 kPa, x2 = 0.328) was 0.15 ± 0.005 W/m/K, the thermal conductivity ([2]; 334.2 K, 10000 kPa, x2 = 0.42) was 0.148 ± 0.005 W/m/K and the thermal conductivity ([2]; 334.2 K, 20000 kPa, x2 = 0.108) was 0.151 ± 0.005 W/m/K. The thermal conductivity ([2]; 334.2 K, 20000 kPa, x2 = 0.22) was 0.152 ± 0.005 W/m/K, the thermal conductivity ([2]; 334.2 K, 20000 kPa, x2 = 0.328) was 0.151 ± 0.005 W/m/K and the thermal conductivity ([2]; 334.2 K, 20000 kPa, x2 = 0.42) was 0.149 ± 0.005 W/m/K.
